As usually defined, the IC50 is the concentration that gives 50% inhibition. Read a high IC50 as lower potency. A word on the inhibition: it is the relative decrease from the control value, in per cent.

For data set [1], the system named is Male Wistar rats. Description: Chronic constriction injury model, mechanical allodynia (Dynamic Plantar Aesthesiometer). It is filed as in vivo, rat. As to the method: (§1) Male Wistar rats (220-250 g, Harlan Italy) were used (n=60). Animals were housed in a room with controlled temperature (22±1° C.), humidity (60±10%) and light (12 h per day) for at least a week before being used. Rats were randomly divided into sham, control and treatment groups; ten animals per group were used. All animal experiments were complied with the Italian (D.L. no.116 of Jan. 27, 1992) and associated guidelines in the European Communities Council (Directive of Nov. 24, 1986, 86/609/ECC).
(§2) Antiallodynic effects were assessed at 1 and 3 h post dose. Control animals received vehicle alone (0.5 ml/iv/rat; 10% solutol-NMP and 90% PBS).
(§3) Neuropathic pain behavior was induced by ligation of the sciatic nerve according to the method described by Bennett and Xie [Bennett G. J. and Xie Y. K. A peripheral mononeuropathy in rat that produces disorders of pain sensation like those seen in man, Pain, (1988) 33:87-107]. Briefly, rats were anaesthetized (100 mg/kg ketamine and 10 mg/kg xylazine i.p.) and the left sciatic nerve was exposed at the level of the thigh by blunt dissection through the biceps femoris. Proximal to the sciatic's trifurcation, about 12 mm of nerve was freed of adhering tissue and four ligatures were loosely tied around it with about 1 mm spacing so that the epineural circulation was preserved. The length of nerve thus affected was 6-8 mm long. The animals were allowed to recover and used the day after the surgery. Sham animals represent rats operated but not ligated.
To assess for changes in sensation or in the development of mechanical allodynia, sensitivity to tactile stimulation was measured using the Dynamic Plantar Aesthesiometer (DPA, Ugo Basile, Italy). Ligated animals were placed in a chamber with a mesh metal floor covered by a plastic dome that enabled the animal to walk freely, but not to jump. The mechanical stimulus was then delivered in the mid-plantar skin of the hind paw. The cut-off was fixed at 50 g, while the increasing force rate (ramp duration) was settled at 20 sec. […]

For data set [2], the system named is Male Wistar rats. The data set can be described thus: Chronic constriction injury model, cold allodynia (acetone). The class given is in vivo, rat. As for the experimental part:
as §1, §2, §3
Cold sensitivity was measured as the number of foot withdrawal responses after application of acetone to the dorsal surface of the paw. A drop of acetone (15-20° C.) was applied to the dorsal surface of the ligated paw with a syringe connected to a thin polyethylene tube while the rats were standing on a metal mesh. A brisk foot withdrawal response, after the spread of acetone over the dorsal surface of the paw, was considered as a sign of cold allodynia. Basal response was measured on the days before treatment (2nd, 6th and 13th). […]

The target of data set [3] is T1, TRPM8 (Homo sapiens, UniProt Q7Z2W7). Description: HTS cell-based Ca2+ mobilization assay (FLIPR TETRA) in HEK293/hTRPM8 cells, agonist Cooling Agent 10. Also on record: expressed in transfected cells. As to conditions: HEK293/hTRPM8, Cooling Agent 10 at EC80. From the text: A functional cell-based assay for the identification of TRPM8 receptor antagonists, optimised to allow high throughput screening at FLIPR^TETRA, was developed in HEK293 cells by stable pure clone selection and functional characterization with a fluorescent calcium sensitive dye.
T1 sequence (Q7Z2W7 whole entry): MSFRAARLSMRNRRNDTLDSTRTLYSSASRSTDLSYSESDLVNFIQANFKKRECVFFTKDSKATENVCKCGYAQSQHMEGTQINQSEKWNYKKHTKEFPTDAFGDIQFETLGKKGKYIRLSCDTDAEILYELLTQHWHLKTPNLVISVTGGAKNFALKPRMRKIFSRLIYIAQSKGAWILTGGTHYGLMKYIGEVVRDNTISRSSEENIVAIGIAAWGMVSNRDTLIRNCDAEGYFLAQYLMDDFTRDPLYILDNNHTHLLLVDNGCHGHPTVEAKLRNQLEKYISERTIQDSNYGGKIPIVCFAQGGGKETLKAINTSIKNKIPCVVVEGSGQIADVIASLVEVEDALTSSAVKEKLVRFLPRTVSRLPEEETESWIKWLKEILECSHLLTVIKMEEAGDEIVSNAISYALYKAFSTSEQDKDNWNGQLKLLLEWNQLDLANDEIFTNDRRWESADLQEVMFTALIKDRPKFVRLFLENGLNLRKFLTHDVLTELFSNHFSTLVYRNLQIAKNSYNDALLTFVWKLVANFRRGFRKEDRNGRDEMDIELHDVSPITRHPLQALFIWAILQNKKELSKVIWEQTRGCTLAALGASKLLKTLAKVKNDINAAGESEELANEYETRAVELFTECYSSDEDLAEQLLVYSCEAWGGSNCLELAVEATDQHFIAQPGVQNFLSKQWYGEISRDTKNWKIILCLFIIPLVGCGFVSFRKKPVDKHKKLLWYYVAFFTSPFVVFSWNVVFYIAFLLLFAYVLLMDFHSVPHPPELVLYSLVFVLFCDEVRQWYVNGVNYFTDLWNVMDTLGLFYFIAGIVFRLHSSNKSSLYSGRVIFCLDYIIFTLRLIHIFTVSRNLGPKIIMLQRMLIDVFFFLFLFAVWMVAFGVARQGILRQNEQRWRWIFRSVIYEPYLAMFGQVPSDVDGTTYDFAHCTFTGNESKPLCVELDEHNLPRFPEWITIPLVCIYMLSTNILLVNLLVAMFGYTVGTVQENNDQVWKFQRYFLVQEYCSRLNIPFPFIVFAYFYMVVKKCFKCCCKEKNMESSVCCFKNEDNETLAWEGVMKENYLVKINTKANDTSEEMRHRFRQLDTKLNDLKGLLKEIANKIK
TRPM8 was cloned into the multiple cloning site of pcDNA3 mammalian expression vector; the obtained construct pcDNA3/hTRPM8 was fully sequence verified and used for the transfection of HEK293 cell line. HEK293 cells stably transfected with TRPM8 gene were maintained in Minimum essential medium. The cells were transfected with the pcDNA3/hTRPM8 vector by electroporation and then selected with medium containing 0.8 mg/ml G418 for 10-15 days.
The following commercial compounds were used as ligands:
Activator: Cooling Agent 10 (Takasago CAS N. 87061-04-9)
Blocker: Capsazepine (SIGMA cat #D_5879)
The experimental activities were performed using FLIPR^TETRA instruments.
HEK293 cells stably transfected with TRPM8 gene were maintained in Minimum essential medium.
The TRPM8 cell line was analysed for the response to a library of compounds using a Ca^2+ mobilization-dependent fluorescence signal in 384 wells microtiter plate format. The analysis was performed using the FLIPR^TETRA (MDC) with the ICCD Camera.
The execution of the assay involved the use of three microtiter plates:
1. Assay plate, containing cells loaded with dye and prepared as follows:
Cells were seeded at 15000 c/well in Poly-D-Lysine coated 384 wells Microtiter Plates in complete medium (25 μl/well).
24 h after seeding, the cell plates were washed with Tyrode assay buffer by the Microplate Washer and 10 μL of Tyrode assay buffer was left in each well.
Cells were then loaded with 10 μL/well of the Fluo-4 NW dye solution by CyBi®-Well pipettor. Each bottle of Fluo4-NW dye (Molecular Probes cat. #F36206, component A) was re-suspended in 8 mL of Tyrode assay buffer and supplemented with 100 μL of water-soluble probenecid (MolecularProbes cat.#F36206, component B).
Dye loaded cell plates were incubated for 1 h at room temperature.
2. Compound Dilution Plate (FIG. 1), containing diluted test compounds, formulated as follows: […]
Column 1: wells containing Assay Buffer plus DMSO 0.5% final
Columns 3-22: wells containing Assay Buffer plus 0.5% DMSO final. To these wells the compounds to be tested were added at 3× concentration.
Column 23: alternating wells of Max Signal Control in second injection (Assay buffer) and Min Signal Control in second injection (Antagonist Capsazepine IC100, 50 μM) in Assay buffer plus 0.5% DMSO final;
Column 24: wells containing Capsazepine (Antagonist) at 8 concentrations in duplicate at final concentrations of 50 μM, 25 μM, 6.25 μM, 3.15 μM, 1.56 μM, 780 nM, […] in Assay buffer plus 0.5% DMSO final.
3. Activator Plate (FIG. 2), containing agonist Cooling Agent 10 at EC80, formulated as follows:
Column 1: Cooling Agent 10 (Agonist) at 8 concentrations dose response in duplicate at final concentrations of 100 μM, 31.6 μM, 10 μM, 3.16 μM, 1 μM, 316 nM, 100 nM, 31.6 nM in Assay buffer;
Columns 2-24: Cooling Agent 10 (Agonist) at EC80 (3 fold concentrated, 20 μM final) in Assay buffer.
The test was carried out according to a procedure comprising the following steps:
1. The samples contained in the wells of the Compound Plate were added to the corresponding wells of the Assay Plate by the FLIPR^TETRA, thus resulting in the addition in Columns 3-22 of the test compounds at 3× concentration to the cells of the assay plates. No mixing was performed in the assay wells and the signal of the emitted fluorescence was recorded for 300 seconds. 2. The samples contained in the wells of the Activator Plate were added to the corresponding wells of the Assay Plate by the FLIPR^TETRA, thus resulting in the addition in Columns 3-22 of the Assay Plate of the agonist compound in addition to the test compounds. The signal of the emitted fluorescence was recorded for 180 seconds.
In general terms: Calcium flux is commonly read through the fluorescence of an indicator in the cells.

The target of data set [4] is TRPV1 (Homo sapiens, UniProt Q8NER1). The data set can be described thus: Calcium influx counterassay, agonist capsaicin. As to conditions: 0.1 μM capsaicin = 100%, read-out: Normalized % inhibition (TRPV1). It is filed as cell-based. As to the method:
In order to address more specifically the potential selectivity issues, a counterassay was carried out for 10, 45 and 118 against TRPV1 and TRPV4 ion channels, both involved in the nociception (Jhaveri M D, et al 2005. Eur. J. Neurosci. 22 (2): 361-70, Brierley S M et al, 2008, Gastroenterology. 2008 June; 134(7):2059-69. ). The ability of each test compound to act as an antagonist of TRPV1 was evaluated with a calcium influx assay.

Data set [5] deals with T1, TRPM8.
Source text: Values were considered significant if the test compound mean was three or more standard deviations away from the positive control agonist mean.
The target in data set [6] is TRPV4 (Homo sapiens, UniProt Q9HBA0). Description: Calcium influx counterassay, agonist GSK1016790A. As to conditions: 10 μM GSK1016790A = 100%, read-out: Normalized % inhibition (TRPV4). It is filed as cell-based. As for the experimental part:
In parallel, the ability of each test compound to act as an antagonist of TRPV4 was evaluated with a calcium influx assay.

The nature of data set [7]: Log D. It is filed as physicochemical.
The mark [8] stands for this setting: 10 mg/kg i.v., day 7 after nerve injury, 1 hour post-dose.
The mark [9] stands for this setting: 10 mg/kg i.v., day 7, 1 hour post-dose.
The mark [10] stands for this setting: day 14 after surgery, 1 h post-dose (Compound 118: 10 mg/kg i.v.).

TRPV1, sequence (Q8NER1 whole entry, species assumed): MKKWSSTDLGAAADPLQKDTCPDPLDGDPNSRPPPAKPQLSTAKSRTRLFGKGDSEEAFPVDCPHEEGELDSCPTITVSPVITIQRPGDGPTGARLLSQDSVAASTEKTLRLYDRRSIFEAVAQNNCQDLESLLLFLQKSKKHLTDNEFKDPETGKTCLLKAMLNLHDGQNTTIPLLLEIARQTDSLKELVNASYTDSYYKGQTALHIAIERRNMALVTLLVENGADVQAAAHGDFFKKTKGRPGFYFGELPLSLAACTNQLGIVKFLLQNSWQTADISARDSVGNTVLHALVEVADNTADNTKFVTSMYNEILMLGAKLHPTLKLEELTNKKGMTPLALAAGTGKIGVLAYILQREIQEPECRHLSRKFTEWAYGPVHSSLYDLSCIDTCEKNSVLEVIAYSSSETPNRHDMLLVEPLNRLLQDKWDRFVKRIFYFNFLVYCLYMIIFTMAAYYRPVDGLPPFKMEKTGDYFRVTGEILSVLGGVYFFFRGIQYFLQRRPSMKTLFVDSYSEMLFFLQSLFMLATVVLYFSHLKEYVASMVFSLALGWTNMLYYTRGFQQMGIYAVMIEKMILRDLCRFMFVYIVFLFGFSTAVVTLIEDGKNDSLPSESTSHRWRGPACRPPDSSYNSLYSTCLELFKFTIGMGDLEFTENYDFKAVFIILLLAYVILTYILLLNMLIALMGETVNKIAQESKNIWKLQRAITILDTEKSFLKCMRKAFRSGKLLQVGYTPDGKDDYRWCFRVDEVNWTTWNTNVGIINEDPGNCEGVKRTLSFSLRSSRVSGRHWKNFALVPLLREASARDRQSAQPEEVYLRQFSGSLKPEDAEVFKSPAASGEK
TRPV4, sequence (Q9HBA0 whole entry, species assumed): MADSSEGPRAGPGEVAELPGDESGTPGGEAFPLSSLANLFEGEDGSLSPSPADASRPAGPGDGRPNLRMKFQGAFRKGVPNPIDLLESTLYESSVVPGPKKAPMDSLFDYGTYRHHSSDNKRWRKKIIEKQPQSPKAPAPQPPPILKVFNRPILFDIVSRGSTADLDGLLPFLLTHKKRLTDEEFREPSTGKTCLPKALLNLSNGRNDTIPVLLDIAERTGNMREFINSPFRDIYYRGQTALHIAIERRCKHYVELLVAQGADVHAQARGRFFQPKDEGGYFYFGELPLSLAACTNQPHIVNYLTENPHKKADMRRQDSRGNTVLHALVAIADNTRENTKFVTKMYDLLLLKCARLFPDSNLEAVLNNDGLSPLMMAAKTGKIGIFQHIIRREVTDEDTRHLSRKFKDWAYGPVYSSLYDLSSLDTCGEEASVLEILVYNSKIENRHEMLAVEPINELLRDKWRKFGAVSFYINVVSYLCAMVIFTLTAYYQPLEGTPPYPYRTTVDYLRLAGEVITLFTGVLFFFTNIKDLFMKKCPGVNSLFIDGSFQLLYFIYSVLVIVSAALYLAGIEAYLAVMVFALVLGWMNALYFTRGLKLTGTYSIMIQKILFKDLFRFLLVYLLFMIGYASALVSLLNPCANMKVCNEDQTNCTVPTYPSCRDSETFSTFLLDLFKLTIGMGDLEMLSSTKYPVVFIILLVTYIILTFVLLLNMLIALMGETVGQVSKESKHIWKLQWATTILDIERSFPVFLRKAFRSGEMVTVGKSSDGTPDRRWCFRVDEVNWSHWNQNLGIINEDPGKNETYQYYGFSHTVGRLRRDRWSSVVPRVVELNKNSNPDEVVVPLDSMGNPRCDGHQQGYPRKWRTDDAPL

In the case of `O=C(O)c1sc(-c2ccc(Cl)cc2)nc1O` [Compound 1, 2-(4-chlorophenyl)-4-hydroxy-1,3-thiazole-5-carboxylic acid], the “inhibition of mechanical allodynia” value in data set [1] (setting [8]) is given as 26 % of inhibition. In data set [2] (setting [8]), the “inhibition of cold allodynia” value is 39 % of inhibition. The compound further came in with a 50% inhibitory concentration (IC50) in data set [3] of less than 10 µM.
For `Cc1ccc(-c2nc(O)c(C(=O)O)s2)cc1` [Compound 2, 4-hydroxy-2-(4-methylphenyl)-1,3-thiazole-5-carboxylic acid], in data set [3], the IC50 was less than 10 µM.
The same measure, in the same setting: for `CCOC(=O)c1sc(-c2ccccc2)nc1OCc1ccc(Cl)cc1` [Compound 27, ethyl 4-[(4-chlorobenzyl)oxy]-2-phenyl-1,3-thiazole-5-carboxylate] the value was less than 10 µM; for `CCOC(=O)c1sc(-c2ccccc2)nc1OC(=O)c1ccc(C(F)(F)F)cc1` [Compound 36, ethyl 2-phenyl-4-{[4-(trifluoromethyl)benzoyl]oxy}-1,3-thiazole-5-carboxylate], less than 10 µM; for `CCOC(=O)c1sc(-c2ccc(Cl)cc2)nc1OCCN` [Compound 41, ethyl 4-(2-aminoethoxy)-2-(4-chlorophenyl)-1,3-thiazole-5-carboxylate], less than 10 µM.
The same measure, in the same setting: the figure for `CCOC(=O)c1sc(-c2ccc(C)cc2)nc1NCCN` [Compound 67, ethyl 4-[(2-aminoethyl)amino]-2-(4-methylphenyl)-1,3-thiazole-5-carboxylate] is less than 10 µM; for `CCOC(=O)c1sc(-c2ccc(Cl)cc2)nc1NCCNC` [Compound 68, ethyl 2-(4-chlorophenyl)-4-{[2-(methylamino)ethyl]amino}-1,3-thiazole-5-carboxylate] it is less than 10 µM; for `CCOC(=O)c1sc(-c2ccc(Cl)cc2)nc1NCCN` [Compound 70, ethyl 4-[(2-aminoethyl)amino]-2-(4-chlorophenyl)-1,3-thiazole-5-carboxylate] it is less than 10 µM.
In turn, `Cc1ccc(-c2nc(OCc3ccc(Cl)cc3)c(C(=O)O)s2)cc1` [Compound 83, sodium 4-[(4-chlorobenzyl)oxy]-2-(4-methylphenyl)-1,3-thiazole-5-carboxylate] came in with an IC50 in data set [3] of less than 10 µM.
On the same count and under the same terms, for `O=C(O)c1sc(-c2ccc(Cl)cc2)nc1OCc1ccc(Cl)cc1` [Compound 84, sodium 4-(4-chlorobenzyloxy)-2-(4-chlorophenyl)-1,3-thiazole-5-carboxylate] the value was less than 10 µM.
Take `CCn1nnc(-c2sc(-c3cccc(F)c3)nc2O)n1` [Compound 118, 2-(3-fluorophenyl)-5-(2-ethyl-2H-tetrazol-5-yl)-1,3-thiazol-4-ol]: in data set [1] (setting [9]), the “mechanical allodynia” value is given as “significantly attenuated”. Moreover, the “inhibition of mechanical allodynia” value in data set [1] (setting [10]) is listed as “no inhibition”. Also, the inhibition at 1 µM is 1.2% in data set [4] (Test Conc. 1 uM) and 2% in data set [6] (Test Conc. 1 uM). Moreover, the inhibition at 10 µM amounted to 2.3% in data set [4] (Test Conc. 10 uM) and 8.9% in data set [6] (Test Conc. 10 uM). In addition, the “antagonist activity in calcium influx assay” value in data set [5] is “confirmed the antagonist activity”. Further, the “log D values” in data set [7] was “low”. For the same compound, the “cold allodynia” value in data set [2] (setting [9]) is listed as “significantly attenuated”. Besides, the “inhibition of cold allodynia” value in data set [2] (setting [10]) is on record as 52 % of inhibition.
